Results: patent publication US8618169B2, “Derivatives of N-phenylanthranilic acid and 2-benzimidazolone as potassium channel and/or neuron activity modulators” (Ramot at Tel-Aviv University Ltd., priority 2002, dated 2013)
Values joined by “and” are separate entries in the source; they are usually repeats but may differ in a detail not shown here. Equal values may be shown once.

Tests used:
[1] = system: electroshock-induced seizures; assay: Maximal electroshock seizure (MES) test in ICR mice; format: in vivo
Experimental: All animals were treated in accordance with the Guide for the Care and Use of Laboratory Animals as adopted and promulgated by the U.S. National Institutes of Health. The procedures followed for experimentation and maintenance of the animals were approved by the animal research ethics committee of Tel Aviv University and in accordance with the Guide for the Care and Use of Laboratory Animals (1996. National Academy of Sciences, Washington D.C). […] electroshock were induced in adult mice by means of two transcorneal electrodes delivering an alternative current of 50 mA at 60 Hz for 0.2 sec using rodent shocker (Hugo Sachs Electronik, type 221). […] The tested compounds were dissolved in 0.9% saline were administered intraperitoneally either 30 minutes or 2 hours before the electroshock was performed. Animals failing to show tonic hind limb extension were scored as protected and were expressed in percentage.
Five groups of 10 ICR mice each received intraperitoneally saline (control) or meclofenamic acid (Compound 1) at 25 mg/kg, 50 mg/kg, 100 mg/kg and 150 mg/kg and were subjected 30 minutes later to an electric shock (50 mA, 0.2 second duration, 60 Hz).
In view of the strong depressing activity of Compound 6 on cortical neurons, the anticonvulsant activity in mice subjected to seizures produced by electroshock was examined, using the MES test described above. Compound 6 dissolved in saline was injected intraperitoneally (in a volume of 10 ml/kg) at doses ranging from 6 mg/kg to 20 mg/kg to ICR adult mice and its anticonvulsant activity was compared with saline. Twenty minutes after drug administration, seizures were produced by electroshock (50 mA, 0.2 second duration, 60 Hz).

KCNQ2/3 channels = target: T1, KCNQ2/3 channels (Homo sapiens, UniProt O43525+O43526); assay: KCNQ2/3 current in transfected CHO cells, whole-cell patch-clamp; format: cell-based
T1 construct: expressed in transfected cells; host or cells: CHO cells

KCNQ2/Q3 [2] = target: T2, KCNQ2/Q3 (Homo sapiens, UniProt O43525+O43526); assay: KCNQ2/Q3 current in Xenopus oocytes, two-electrode voltage-clamp; format: cell-based; set-up: expressed in transfected cells; host or cells: Xenopus oocytes (cRNA microinjection); conditions: for increase of KCNQ2/Q3 currents: at −40 mV
Experimental: Current measurements in Xenopus oocytes were performed as described in the art [Peretz et al. J. Physiol 545:751-766 (2002)]. Briefly, two-electrode voltage-clamp measurements were performed 3-5 days following cRNA microinjection into oocytes. Oocytes were bathed in a modified ND96 solution containing (in mM): 96 NaCl, 2 KCl, 1 MgCl2, 0.1 CaCl2 and 5 HEPES titrated to pH=7.4 with NaOH. Whole-cell currents were recorded at room temperature (20° C.-22° C.) using a GeneClamp 500 amplifier (Axon Instruments, Foster City, Calif., USA). Glass microelectrodes (A-M Systems, Inc., Carlsborg, Wis., USA) were filled with 3M KCl and had tip resistances of 0.5-1.5 MΩ. Stimulation of the preparation, data acquisition and analyses were performed using the pCLAMP 6.02 software (Axon Instruments, Foster City, Calif., USA) and a 586 personal computer Pentium 4 interfaced with a Digidata 1200 interface (Axon Instruments, Foster City, Calif., USA). Current signals were filtered at 0.5 kHz and digitized at 2 kHz.
Data analysis was performed using the Clampfit program (pClamp 8.1, Axon Instruments, Foster City, Calif., USA), Microsoft Excel 98 (Microsoft Corp., Redmond, Wash., USA), Axograph 4.6 (Axon Instruments, Foster City, Calif., USA) and Prism 2.0 (GraphPad, San Diego, Calif., USA). Leak subtraction was performed off-line, using the Clampfit program of the pClamp 8.1 software. To analyze the KCNQ2/3 channel deactivation, a single exponential fit was applied to the tail currents. Chord conductance (G) was calculated by using the equation: G=I/(V−Vrev) where I corresponds to the current amplitude measured at the end of the pulse and Vrev, the calculated reversal potential assumed to be −90 mV in CHO cells and −98 mV in Xenopus oocytes. G was estimated at various test voltages V and then, normalized to a maximal conductance value, Gmax, calculated at +40 mV. Activation curves were fitted by a Boltzmann distribution: G/Gmax=1/{1+exp[(V50−V)/s]} where V50 is the voltage at which the current is half-activated and s is the slope factor. All data were expressed as mean±SEM. Statistically significant differences were assessed by Student's t-test.
Data are expressed as mean±SEM of 5-8 separate experiments.

M-current = target: T3, M-current (Rattus norvegicus, UniProt O88943+O88944); assay: Native M-current of cultured rat cortical neurons, voltage-clamp; format: cell-based
T3 construct: the native M-current from pyramidal-like neurons was recorded; endogenous in cells; host or cells: primary cortical neurons from Sprague Dawley rat embryos (E18)

rat cortical neurons = assay: Evoked and spontaneous action potential activity of cultured rat cortical neurons, current-clamp; format: cell-based
homomeric KCNQ3 = target: T4, homomeric KCNQ3 (Homo sapiens, UniProt O43525); assay: Homomeric KCNQ3 channels expressed in CHO cells, patch-clamp; format: cell-based; conditions: 50 μM
T4 construct: expressed in transfected cells; host or cells: CHO cells

KCNQ2/Q3 [3] = target: T2, KCNQ2/Q3; assay: Opener potency on KCNQ2/Q3 by leftward shift of half-activation potential (ΔV50) versus concentration, Hill fit; format: cell-based; set-up: expressed in transfected cells; conditions: compound alone
homomeric KCNQ2 channels = target: T5, homomeric KCNQ2 channels (Homo sapiens, UniProt O43526); assay: Homomeric KCNQ2 channels expressed in CHO cells, patch-clamp; format: cell-based; conditions: 50 μM
T5 construct: expressed in transfected cells; host or cells: CHO cells

[4] = 100 μM, prepulse −20 mV, tail −60 mV

For `O=C(Cc1ccccc1Nc1c(Cl)cccc1Cl)NCCOCCO` [Compound 6], the ED50 ([1]; Mus musculus, intraperitoneal 6-20 mg/kg, twenty minutes before electroshock, read-out: ED50 of protective effect against seizures) was 8.7 mg/kg, the “leftward shift in the voltage-dependence of KCNQ2/3 activation” value (KCNQ2/3 channels; 25 μM, CHO cells) was “about 13 mV” and the “V50 of KCNQ2/3 activation with compound” value (KCNQ2/3 channels; 25 μM, CHO cells, control −30.9±4.1 mV) was −43.45±2.3 mV. The “increase of the current amplitude” value (KCNQ2/3 channels; 25 μM, train protocol, stepped to −50 mV) was “up to 220%”, the “effect on deactivation kinetics of KCNQ2/3 channels” value (KCNQ2/3 channels; CHO cells) was “slowed down” and the EC50 (KCNQ2/3 channels; at −50 mV, CHO cells, read-out: EC50 of concentration-dependent current increase) was 7 ± 1 µM. The “increase of KCNQ2/Q3 currents” value (KCNQ2/Q3 [2]; 25 μM) was 1.95 fold, the “negative shift in the threshold of M-current activation” value (M-current; cortical neurons, from −50 mV to −70 mV) was “approximately 20 mV” and the “effect on evoked and spontaneous cortical neuron activity” value (rat cortical neurons) was “depress”. For the same compound, the “effect on spontaneous action potentials” value (rat cortical neurons; 5 μM-20 μM, within less than 2 minutes) was “profound depression of spontaneous action potentials” and the “effect on number of evoked action potentials” value (rat cortical neurons; 10 μM) was “reduced drastically and reversibly”.
For `Cc1ccc(Cl)c(Nc2ccccc2C(=O)O)c1Cl` [Compound 1, Meclofenamic acid], the “% Protection” value ([1]; 50 mg/kg i.p., 30 minutes before electroshock) was 17% and 17 (6) %, the “% Protection” value ([1]; 100 mg/kg i.p., 30 minutes before electroshock) was 75 (5) % and the “% Protection” value ([1]; 100 mg/kg i.p., 2 hours before electroshock) was 25 (4) %. The “adverse effect in mice” value ([1]; 150 mg/kg intraperitoneally) was “sedation”, the “% Protection” value ([1]; 200 mg/kg i.p., 30 minutes before electroshock) was “toxic” and the “% Protection” value ([1]; 200 mg/kg i.p., 2 hours before electroshock) was “toxic”. The “mice protected from electroshock” value ([1]; Example 9: 50 mg/kg intraperitoneally, 30 minutes before shock) was 50%, the “protection from electroshock seizures” value ([1]; Example 9: 100 mg/kg intraperitoneally, 30 minutes before shock) was “fully prevented seizures” and the “toxic effects at high doses” value ([1]; mouse, in vivo) was “pro-convulsive toxic effects and hyperactivity”. The “V50 of KCNQ2/3 current activation with compound” value (KCNQ2/3 channels; 100 μM, CHO cells) was −42.34±2.08 mV, the “leftward shift in the voltage-dependence of KCNQ2/3 current activation” value (KCNQ2/3 channels; 100 μM, CHO cells) was 22.7 mV and the “slope parameter s of the Boltzmann fitting curve” value (KCNQ2/3 channels; 100 μM, CHO cells) was −10.50±0.93 mV/e fold. For the same compound, the “increase of the time constant for deactivation” value (KCNQ2/3 channels; [4]) was “about 2 fold”, the “time constant for deactivation τdeact with compound” value (KCNQ2/3 channels; [4]) was 167.5 ± 11.6 ms and the “effect on KCNQ2/3 activation kinetics” value (KCNQ2/3 channels; CHO cells) was “did not affect”. For the same compound, the “voltage threshold of KCNQ2/3 current activation upon exposure” value (KCNQ2/3 channels; CHO cells, control −50 mV) was “about −60 mV”, the “increase of KCNQ2/3 current amplitude” value (KCNQ2/3 channels; at −30 mV, CHO cells) was greater than 2.5 fold and the “increase of KCNQ2/3 current amplitude” value (KCNQ2/3 channels; at −40 mV, CHO cells) was greater than 5 fold. For the same compound, the “increase of KCNQ2/3 current amplitude” value (KCNQ2/3 channels; at −50 mV, CHO cells) was “more than 10 fold”, the “increase in KCNQ2/3 current amplitude” value (KCNQ2/3 channels; potentials around −60/−50 mV) was “more than 10 fold” and the “increase of the current amplitude” value (KCNQ2/3 channels; train protocol, cells stepped to −20 mV) was “up to 72%”. The “KCNQ2/3 current amplitude with compound” value (KCNQ2/3 channels; train protocol, stepped to −20 mV, control 844±130 pA) was 1451±164 pA, the “leftward shift in the voltage-dependence of KCNQ2/Q3 current activation” value (KCNQ2/Q3 [2]; 25 μM, Xenopus oocytes) was −15.9 mV and the “V50 of KCNQ2/Q3 current activation with compound” value (KCNQ2/Q3 [2]; 25 μM, Xenopus oocytes, control −28.6±2.9 mV) was −44.5±3.1 mV. The “increase of KCNQ2/Q3 currents” value (KCNQ2/Q3 [2]; 25 μM) was 1.75 fold, the “increase in KCNQ2/Q3 current amplitude” value (KCNQ2/Q3 [2]; 25 μM, oocyte membrane stepped from −80 mV to −40 mV) was 53±8% and the “oocyte resting membrane potential after compound” value (KCNQ2/Q3 [2]; increasing concentrations, from −56±2 mV) was −72±3 mV. The EC50 (KCNQ2/Q3 [2]; increasing concentrations, read-out: EC50 of hyperpolarization of the oocyte resting membrane potential) was 11.7 ± 5.2 µM, the “leftward shift of the activation curve of KCNQ3 channels” value (homomeric KCNQ3; CHO cells) was −15 mV and the “increase of KCNQ3 current amplitude” value (homomeric KCNQ3; stepped from −85 mV to −40 mV) was 120±4%. For the same compound, the “τdeact of KCNQ3 with compound” value (homomeric KCNQ3; control 319.6±40.8 msec) was 317.2 ± 30.2 ms, the “V50 of KCNQ3 activation with compound” value (homomeric KCNQ3; control −39.0±3.5 mV) was −54.0±2.0 mV and the “Hill coefficient ηH” value (KCNQ2/Q3 [3]; Hill fit) was 2.1±0.5. The EC50 (KCNQ2/Q3 [3]; Hill fit, read-out: EC50 of leftward shift of the half-activation potential (ΔV50)) was 25.7 ± 1.1 µM, the “maximal left-shift of the half-activation potential (ΔV50)” value (KCNQ2/Q3 [3]) was −20±3 mV and the “leftward shift in the activation curve of KCNQ2 channels” value (homomeric KCNQ2 channels; CHO cells) was −26.9 mV. The “increase of KCNQ2 current amplitude” value (homomeric KCNQ2 channels; stepped from −85 mV to −40 mV) was 240±26%, the “time constant of deactivation τdeact of KCNQ2 with compound” value (homomeric KCNQ2 channels; control 92.6±3.9 msec) was 152.7 ± 4.9 ms and the “V50 of KCNQ2 activation with compound” value (homomeric KCNQ2 channels; control −23.6±2.2 mV) was −50.5±1.4 mV. For the same compound, the “enhancement of the linopirdine-sensitive outward current” value (M-current; 10 μM, step from −80 mV to −40 mV) was 465±134 percents of control, the “effect on spontaneous spiking activity” value (rat cortical neurons; 10 μM) was “completely but reversibly inhibited” and the “number of evoked action potentials with compound” value (rat cortical neurons; 10 μM, 100 pA depolarizing current for 800 mseconds, control 20±1) was 1±1. The “effect on evoked potentials” value (rat cortical neurons; 5-20 μM) was “reversibly inhibited”.
